Assay results taken from US4666890A, “Peptide, process for preparation thereof and use thereof” (priority 1978, dated 1987).

Tests used:
[1] = test system: mice; assay: Acute toxicity in mice; format: in vivo; conditions: 1 g/kg (i.v.)
Description: ACUTE TOXICITY IN MICE of FR-900156
1 g/kg (i.v.): no toxicity.

[2] = test system: Mice (DDY male 5-6 W); assay: Blood stream clearance of carbon; format: in vivo
Experimental: 1. Carbon suspension. Rotoring drawing ink (170 mg carbon/ml.) was diluted to 1/5 of the original concentration in saline containing 1% gelatin.
2. 0.1% aqueous sodium carbonate solution.
Mice (DDY male 5-6 W) were injected via the tail vein with a dose of 0.01 ml/g body weight of carbon. Blood samples were taken by means of a pointed capillary pippet calibrated to hold a 50 μl and previously washed in heparin. This was plunged into the retrooribital venous sinus at the nasal angle of the eye. The samples were removed at 3 and 6 min. The blood was immediately discharged into 3.0 ml. of the sodium carbonate solution. This hemolyszed the blood and allowed the quantitation of carbon. The samples were then read in a spectrophotometer at 660 nm, the log concentration being obtained from a previously determined standard curve. The clearance value K may be determined by plotting log carbon concentration against time according to the following relationship; [formula] in which T1 and T2 represent the time in min when the sample were withdrawn and C1 and C2 represent the concentrations of carbon in the blood at the time T1 and T2, respectively.
The aqueous solution of the test compound as given was administered subcutaneously to mice. Twenty four hours later, blood stream clearance of carbon was measured. K value obtained with treated mice was compared with that of control mice.

| SMILES | Acute toxicity in mice [1] | Ktreated /Kcontrol ([2]; dose 1 mg/mouse) | Ktreated /Kcontrol ([2]; dose 10 mg/mouse) |
| --- | --- | --- | --- |
| C[C@H](NC(=O)[C@@H](C)O)C(=O)N[C@H](CCC(=O)N[C@@H](CCC[C@@H](N)C(=O)O)C(=O)NCC(=O)O)C(=O)O [FR-900156 substance] | no toxicity |  |  |
| c1ccc([C@H]2CN3CCSC3=N2)cc1 [Levamisol] |  | 0.5 | death |
